Laboratory results reported in publication PMC11368658 (Molecular oral microbiology, 2024).

Key:
TDE1909 (CdaA) = TDE1909 (CdaA) (Treponema denticola, UniProt Q73LF5); format: biochemical; details: 150 µM ATP, 5 µM enzyme, 10 mM MnCl2, pH 7.5, 37 °C, 1-4 hr
TDE0027 (DhhA) = TDE0027 (DhhA) (Treponema denticola, UniProt Q73RQ8); assay: absorbance at […] nm; format: biochemical; details: MnCl2 buffer, 30 min
TDE0087 (TrkA) = biological target: T1, TDE0087 (TrkA) (Treponema denticola, UniProt Q73RK1); assay: ELISA-type plate binding, immobilised protein, streptavidin-HRP; details: labelled compound (biotinylated c-di-AMP, 125 nM); 50 mM Tris-HCl pH 8.0, 750 mM KCl, 2.5 mM EDTA, 2 hr
T1 sequence (Q73RK1 1-466): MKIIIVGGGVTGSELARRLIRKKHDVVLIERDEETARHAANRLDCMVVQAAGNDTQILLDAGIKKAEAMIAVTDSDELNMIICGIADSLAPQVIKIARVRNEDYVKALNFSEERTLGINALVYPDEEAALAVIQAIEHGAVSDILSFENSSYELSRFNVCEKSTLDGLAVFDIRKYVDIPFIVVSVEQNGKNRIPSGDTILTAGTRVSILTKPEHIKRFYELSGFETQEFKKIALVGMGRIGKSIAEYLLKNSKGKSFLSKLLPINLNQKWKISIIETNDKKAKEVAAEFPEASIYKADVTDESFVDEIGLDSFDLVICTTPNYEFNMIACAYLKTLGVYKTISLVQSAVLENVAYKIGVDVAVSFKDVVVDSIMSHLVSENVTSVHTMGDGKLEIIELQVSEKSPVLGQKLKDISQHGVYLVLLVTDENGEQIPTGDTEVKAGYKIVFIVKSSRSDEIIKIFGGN

SMILES	RP-HPLC of reaction products (TDE1909 (CdaA))	absorbance at 405 nm (TDE0027 (DhhA))	ELISA-type plate binding, immobilised protein, streptavidin-HRP (TDE0087 (TrkA))
Nc1ncnc2c1ncn2[C@@H]1O[C@H](COP(=O)(O)OP(=O)(O)OP(=O)(O)O)[C@@H](O)[C@H]1O [ATP]	we observed that CdaA converted ATP to c-di-AMP while CdaR did not		
O=[N+]([O-])c1ccc(OP(=O)(O)Oc2ccc([N+](=O)[O-])cc2)cc1 [bis-pNPP]		TDE0027 hydrolyzed bis-pNPP but not pNPP	
Nc1ncnc2c1ncn2[C@@H]1O[C@@H]2COP(=O)(O)O[C@H]3[C@@H](O)[C@H](n4cnc5c(N)ncnc54)O[C@@H]3COP(=O)(O)O[C@H]2[C@H]1O [c-di-AMP]	we observed that CdaA converted ATP to c-di-AMP while CdaR did not		TDE0087 bound c-di-AMP similarly to the CabP control
